Our source for the IC50 values is patent US9309263B2, “Fused multi-cyclic sulfone compounds as inhibitors of beta-secretase and methods of use thereof” (AMGEN INC., priority 2013, dated 2016).

The target of assay [1] is Beta Secretase enzyme (BACE) (Homo sapiens, UniProt P56817). The experiment in a line: In vitro enzymatic BACE FRET assay. The assay is classed as biochemical. As to conditions: read-out: BACE1 FRET assay IC50. As to the method: In Vitro Enzymatic BACE FRET (Fluorescence Resonance Energy Transfer) Assay (Enzyme Assay Data in the Example Table I)
The assay buffer used in this screen is 0.05 M acetate, pH 4.2, 10% DMSO final, 100 uM genapol (which is a nonionic detergent, below its Critical Micelle Concentration). The Beta Secretase enzyme (0.2 nM) is pre-incubated for one hour with inhibitors, typically in about 1 uL of DMSO according to a serial dilution, are added thereto. This assay is effectively started by the addition of FRET substrate (50 nM) and the combination is incubated for one hour. The FRET assay is terminated with by addition of Tris buffer, which raises the pH to neutrality, and the fluorescence is determined. The FRET substrate is a peptide with commercially available fluorophore and quencher, on opposite sides of the BACE cleavage site. Proteolytic cleavage of the FRET substrate releases quenching of fluorescence (excitation 488 nm and […]).

For assay [2], the system named is Aβ 40 in conditioned medium of cells stably expressing Amyloid Precursor Protein (APP). The experiment in a line: In vitro BACE cell-based assay (Aβ 40 sandwich ELISA). As to conditions: Homo sapiens, HEK293. As to the method:
In Vitro BACE Cell-Based Assay
The cell-based assay measures inhibition or reduction of […] in conditioned medium of test compound treated cells expressing amyloid precursor protein.
Cells stably expressing Amyloid Precursor Protein (APP) were plated at a density of 40K cells/well in 96 well plates (Costar). The cells were cultivated for 24 hours at 37° C. and 5% CO2 in DMEM supplemented with 10% FBS. The test compounds were then added to cells in 10-point dose response concentrations with the starting concentration being either 100 μM or 10 μM. The compounds were diluted from stock solutions in DMSO and the final DMSO concentration of the test compounds on cells was 0.1%. After 24 h of incubation with the test compounds the supernatant conditioned media was collected and the Aβ 40 levels were determined using a sandwich ELISA. The IC50 of the compound was calculated from the percent of control or percent inhibition of Aβ 40 as a function of the concentration of the test compound.
The sandwich ELISA to detect Aβ 40 was performed in 96 well microtiter plates, which were pre-treated with goat anti-rabbit IgG (Pierce). The capture and detecting antibody pair that were used to detect Aβ 40 from cell supernatants were affinity purified pAb40 (Biosource) and biotinylated 6E10 (Signet Labs Inc.), respectively. The optimal concentration for the pAb40 antibody was 3 μg/ml in Superblock/TBS (Pierce) that was supplemented with 0.05% Tween 20 (Sigma). Optimal concentration for the detection antibody 6E10-biotinylated was 0.5 μg/ml in Superblock/TBS (Pierce) that had been supplemented with 2% normal goat serum and 2% normal mouse serum.
Cellular supernatants were incubated with the capture antibody for 3 h at 4° C., followed by 3 wash steps in TBS-tween (0.05%). The detecting antibody incubation was for 2 h at 4° C., again followed by the wash steps as described previously. The final readout of the ELISA is Time-Resolved Fluorescence (counts per minute) using Delfia reagents Streptavidin-Europium and Enhancement solutions (Perkin Elmer) and the Victor 2 multilabel counter (Perkin Elmer).

Another assay addresses Cathepsin D (Cat D) (Homo sapiens, UniProt P07339). The experiment in a line: In vitro enzymatic Cathepsin D (Cat D) FRET assay. The assay is classed as biochemical. Here is the method: In Vitro Enzymatic Cathepsin D (Cat D) FRET (Fluorescence Resonance Energy Transfer) Assay
Recombinant Cat D was expressed in CHO cells. The assay buffer for CathepsinD is 0.05 M citrate pH 3.5, 10% DMSO final, 5 mM CHAPS. The Cat D enzyme (9 nM) is pre-incubated for one hour with inhibitors, typically in about 1 uL of DMSO according to a serial dilution, is added thereto. The assays are effectively started by the addition of different FRET substrates (20 nM for Cat D) and the combination is incubated for one hour. The FRET assay is terminated with by addition of Tris buffer, which raises the pH to neutrality, and the fluorescence is determined. The FRET substrate is a peptide with commercially available fluorophore and quencher, on opposite sides of the BACE cleavage site. The Cat D substrate peptide sequence is based on sequence #1 of Table 1 from Gulnik et al. FEBS Letters v413 p 379-384 1997. Proteolytic cleavage of the FRET substrate releases quenching of fluorescence (Cat D excitation 500 nm and emission 580 nm). […]
See, for instance, examples 8, 12, 15, 16, 18, 21-23, 24, 25, 26, 29, 30, 32, 41-42, 45, 53, 54, 57, 63, 67-69, 72-74, 76, 79-81, 83 & 84 (to point to just a few; referring to data in Table 2). […] See, for instance, examples 8, 12, 15, 18, 21-23, 25, 29, 30, 32, 41-42, 45, 54, 57, 67-68, 72-73, 76, 80-81, 84, 86, 91-92 & 100 (to point out those from compound examples 1-100; and with reference to data in Table 2).

Setting [3] is: average IC50, in vitro enzymatic BACE FRET assay.
The mark [4] stands for this setting: average IC50, HEK cell assay, Aβ 40 readout.
The mark [5] stands for this setting: Cathepsin D FRET assay, read-out: CatD IC50.
The mark [6] stands for this setting: text summary referring to data in Table 2.

Structures are written as SMILES. Where two headings read alike, the source gives them in different places.

Sequence of Beta Secretase enzyme (BACE) (P56817 46-501): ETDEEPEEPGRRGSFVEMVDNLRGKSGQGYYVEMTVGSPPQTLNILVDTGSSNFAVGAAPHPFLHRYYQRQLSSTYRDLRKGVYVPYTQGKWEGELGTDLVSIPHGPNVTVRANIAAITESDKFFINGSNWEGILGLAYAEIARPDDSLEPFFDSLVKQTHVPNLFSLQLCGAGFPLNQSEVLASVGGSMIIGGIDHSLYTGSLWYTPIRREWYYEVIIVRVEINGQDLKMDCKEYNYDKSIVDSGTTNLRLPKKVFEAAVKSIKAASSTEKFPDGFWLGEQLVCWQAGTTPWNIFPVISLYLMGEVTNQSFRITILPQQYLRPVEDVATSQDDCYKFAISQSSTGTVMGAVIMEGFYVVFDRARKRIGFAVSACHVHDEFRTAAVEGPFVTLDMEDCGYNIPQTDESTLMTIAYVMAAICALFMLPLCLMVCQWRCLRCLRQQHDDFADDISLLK
Sequence of Cathepsin D (Cat D) (P07339 65-412, species assumed): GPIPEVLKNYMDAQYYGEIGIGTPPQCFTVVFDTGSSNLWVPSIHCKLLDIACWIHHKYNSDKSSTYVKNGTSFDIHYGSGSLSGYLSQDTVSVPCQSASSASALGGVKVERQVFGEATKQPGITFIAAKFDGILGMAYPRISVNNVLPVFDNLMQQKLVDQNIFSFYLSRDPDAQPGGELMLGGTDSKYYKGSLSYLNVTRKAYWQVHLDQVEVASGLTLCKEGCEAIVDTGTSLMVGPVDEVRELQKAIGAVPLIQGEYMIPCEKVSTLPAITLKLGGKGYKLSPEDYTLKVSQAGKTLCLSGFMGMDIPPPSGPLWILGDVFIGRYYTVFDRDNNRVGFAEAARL

For `CC#CC(C)Oc1cnc(C(=O)Nc2ccc3c(c2)[C@@]2(C)N=C(N)C(C)(C)S(=O)(=O)[C@@H]2CCO3)cn1` (mixture of isomers) [Example 14, N-((4aR,11bR)-2-amino-3,3,11b-trimethyl-4,4-dioxido-4a,5,6,11b-tetrahydro-3H-[1]benzoxepino[4,5-b][1,4]thiazin-10-yl)-5-(((1R)-1-methyl-2-butyn-1-yl)oxy)-2-pyrazinecarboxamide,N-((4aR,11bR)-2-amino-3,3,11b-trimethyl-4,4-dioxido-4a,5,6,11b-tetrahydro-3H-[1]benzoxepino[4,5-b][1,4]thiazin-10-yl)-5-(((1S)-1-methyl-2-butyn-1-yl)oxy)-2-pyrazinecarboxamide], the IC50 in assay [1] (average IC50) was found to be 0.005 µM; in assay [2] (HEK cell, average IC50), 0.001 µM; at Cathepsin D (Cat D) (read-out: CatD IC50), 689 µM.

For the compound `CC1(C)C(N)=N[C@]2(CF)c3cc(NC(=O)c4ccc(OC(F)F)cn4)ccc3OCC[C@@H]2S1(=O)=O` [Example 122, N-((4aS,11bS)-2-amino-11b-(fluoromethyl)-3,3-dimethyl-4,4-dioxido-4a,5,6,11b-tetrahydro-3H-[1]benzoxepino[4,5-b][1,4]thiazin-10-yl)-5-(difluoromethoxy)-2-pyridinecarboxamide], the values for the IC50 (in assay [1] (setting [3]); in assay [2] (setting [4]); on Cathepsin D (Cat D) (setting [5])) were 0.011 µM, 0.013 µM and 1030 µM, respectively.

On to `Cc1cc(OCC(F)(F)F)cnc1C(=O)Nc1ccc2c(c1)[C@@]1(C)N=C(N)C(C)(C)S(=O)(=O)[C@@H]1CCO2` [Example 187, N-((4aR,11bR)-2-amino-3,3,11b-trimethyl-4,4-dioxido-4a,5,6,11b-tetrahydro-3H-[1]benzoxepino[4,5-b][1,4]thiazin-10-yl)-3-methyl-5-(2,2,2-trifluoroethoxy)-2-pyridinecarboxamide], for which the IC50 in assay [1] (average IC50) was determined as 0.016 µM; in assay [2] (HEK cells, average IC50), 0.064 µM; at Cathepsin D (Cat D) (read-out: CatD IC50), 1240 µM.

Take `CC1(C)C(N)=N[C@]2(C)c3cc(NC(=O)c4cc5ccccc5cn4)ccc3OCC[C@H]2S1(=O)=O` [Example 30, N-((4aR,11bR)-2-amino-3,3,11b-trimethyl-4,4-dioxido-4a,5,6,11b-tetrahydro-3H-[1]benzoxepino[4,5-b][1,4]thiazin-10-yl)-3-isoquinolinecarboxamide]: the IC50 is 0.084 µM in assay [1] (average IC50); 0.058 µM in assay [2] (HEK cell, average IC50); 1080 µM at Cathepsin D (Cat D) (read-out: CatD IC50); more than 1200 µM on Cathepsin D (Cat D) (setting [6]).

For the compound `COc1cnc2c(Nc3ccc4c(c3)[C@@]3(C)N=C(N)C(C)(C)S(=O)(=O)[C@H]3CCO4)nccc2n1` [Example 159, (4aS,11bR)-N^~10^~-(2-methoxypyrido[3,4-b]pyrazin-5-yl)-3,3,11b-trimethyl-4a,5,6,11b-tetrahydro-3H-[1]benzoxepino[4,5-b][1,4]thiazine-2,10-diamine 4,4-dioxide], the concentration for half-maximal inhibition (IC50) is 0.075 µM in assay [1] (setting [3]), 0.052 µM in assay [2] (setting [4]) and more than 400 µM on Cathepsin D (Cat D) (setting [5]).

On to `CC1(C)C(N)=N[C@]2(C)c3cc(NC(=O)c4ccc(OCC(F)F)cn4)ccc3OCC[C@H]2S1(=O)=O` [Example 96, N-((4aR,11bR)-2-amino-3,3,11b-trimethyl-4,4-dioxido-4a,5,6,11b-tetrahydro-3H-[1]benzoxepino[4,5-b][1,4]thiazin-10-yl)-5-(2,2-difluoroethoxy)-2-pyridinecarboxamide], for which the IC50 in assay [1] (setting [3]) turned out to be 0.033 µM; in assay [2] (setting [4]) it was 0.098 µM; at Cathepsin D (Cat D) (setting [5]), 1180 µM.

`CC(C)Oc1cnc2c(Nc3ccc4c(c3)[C@@]3(CF)N=C(N)C(C)(C)S(=O)(=O)[C@@H]3CCO4)nccc2n1` [Example 150, (4aR,11bS)-11b-(fluoromethyl)-3,3-dimethyl-N^~10^~-(2-(1-methylethoxy)pyrido[3,4-b]pyrazin-5-yl)-4a,5,6,11b-tetrahydro-3H-[1]benzoxepino[4,5-b][1,4]thiazine-2,10-diamine 4,4-dioxide]: the IC50 in assay [1] (setting [3]) is 0.227 µM; in assay [2] (setting [4]), 1.4 µM; at Cathepsin D (Cat D) (setting [5]), more than 400 µM.

Consider `CC1(C)C(N)=N[C@]2(C)c3cc(NC(=O)c4cnc(OCC(F)(F)F)cn4)ccc3OCC[C@H]2S1(=O)=O` [Example 169, N-((4aR,11bR)-2-amino-3,3,11b-trimethyl-4,4-dioxido-4a,5,6,11b-tetrahydro-3H-[1]benzoxepino[4,5-b][1,4]thiazin-10-yl)-5-(2,2,2-trifluoroethoxy)-2-pyrazinecarboxamide], for which the IC50 in assay [1] (average IC50) is 0.001 µM; in assay [2] (HEK cells, average IC50) it was 0.004 µM; on Cathepsin D (Cat D) (read-out: CatD IC50) it was 1620 µM.

On to `Cc1cc(Cl)cnc1C(=O)Nc1ccc2c(c1)[C@@]1(C)N=C(N)C(C)(C)S(=O)(=O)[C@H]1CCO2` [Example 6b, N-((4aS,11bR)-2-amino-3,3,11b-trimethyl-4,4-dioxido-4a,5,6,11b-tetrahydro-3H-benzo[6,7]oxepino[4,5-b][1,4]thiazin-10-yl)-5-chloro-3-methylpicolinamide], for which the IC50 is 0.003 µM in assay [1] (average IC50); 0.004 µM in assay [2] (HEK cell, average IC50); more than 100 µM on Cathepsin D (Cat D) (read-out: CatD IC50).

On to `C[C@H]1C[C@@H]2[C@](C)(N=C(N)C(C)(C)S2(=O)=O)c2cc(NC(=O)c3cnc(OCC(F)(F)F)cn3)ccc2O1` [Example 74, N-((4aR,6S,11bR)-2-amino-3,3,6,11b-tetramethyl-4,4-dioxido-4a,5,6,11b-tetrahydro-3H-[1]benzoxepino[4,5-b][1,4]thiazin-10-yl)-5-(2,2,2-trifluoroethoxy)-2-pyrazinecarboxamide], for which the IC50 in assay [1] (average IC50) was found to be 0.003 µM; in assay [2] (HEK cell, average IC50) it was 0.007 µM; on Cathepsin D (Cat D) (read-out: CatD IC50) it was 871 µM.

On to `COc1cnc2c(Nc3ccc4c(c3)[C@@]3(C)N=C(N)C(C)(C)S(=O)(=O)[C@@H]3C[C@H](C)O4)nccc2n1` [Example 53, (4aR,6S,11bR)-N^~10^~-(2-methoxypyrido[3,4-b]pyrazin-5-yl)-3,3,6,11b-tetramethyl-4a,5,6,11b-tetrahydro-3H-[1]benzoxepino[4,5-b][1,4]thiazine-2,10-diamine 4,4-dioxide], for which the IC50 is 0.032 µM in assay [1] (average IC50); 0.011 µM in assay [2] (HEK cell, average IC50); 977 µM on Cathepsin D (Cat D) (read-out: CatD IC50); more than 800 µM on Cathepsin D (Cat D) (setting [6]).

For the compound `COc1cnc2c(Nc3ccc4c(c3)[C@@]3(CF)N=C(N)C(C)(C)S(=O)(=O)[C@H]3CCO4)nccc2n1` [Example 155, (4aS,11bS)-11b-(fluoromethyl)-N^~10^~-(2-methoxypyrido[3,4-b]pyrazin-5-yl)-3,3-dimethyl-4a,5,6,11b-tetrahydro-3H-[1]benzoxepino[4,5-b][1,4]thiazine-2,10-diamine 4,4-dioxide], the IC50 is 0.014 µM in assay [1] (setting [3]), 0.062 µM in assay [2] (setting [4]) and more than 400 µM on Cathepsin D (Cat D) (setting [5]).

As a reminder, the IC50 is the concentration that gives 50% inhibition.
